Data taken from US20020142944A1, “Treatment of ocular disorders” (Erasmus Universiteit Rotterdam, priority 1999, published 2002).

Tests used:
[1] = system: bilateral cystoid macular edema; assay: Treatment of cystoid macular edema, single patient; format: in vivo, human; conditions: for effect on the edema or visual acuity: previous therapy before octreotide, eye drops / peribulbar injections
Description: One year later, they noticed blurred vision. Their visual acuity was 20/50 in the right eye and 20/40 in the left eye (by Snellen chart). […] Their visual acuity slowly deteriorated in the subsequent years. […] They had no family history of macular edema. […] The injections were stopped four weeks later, because there was no further improvement.
Treatment with 100 μg or octreotide subcutaneously once daily was resumed. […] […] stopped treatment a second time; after four weeks […] visual acuity was 20/70 in the right eye and 20/50 in the left eye. Octreotide therapy was resumed, and four weeks later […] visual acuity was 20/40 in each eye.

[2] = system: refractory CME due to chronic uveitis; assay: Octreotide treatment of 10 patients with refractory CME due to chronic uveitis, three months; format: in vivo, human
Description: Patients were treated in accordance to the declaration of Helsinki. In this study, 10 consecutive patients from the Department of Ophthalmology, Erasmus University Medical Center, and the Eye Hospital Rotterdam, were selected because of refractory CME due to chronic uveitis. Since CME in uveitis can be influenced in time by multiple factors, only patients suffering from macular edema for more than 6 months were included, regardless of their immune suppressive treatment. Six patients had bilateral CME and four patients unilateral. Three patients with pars planitis needed no treatment for their inflammation but still had marked CME. Fluorescein angiography was performed within one week before starting octreotide treatment. Octreotide therapy was given after informed consent had been obtained. Dosage was started with 100 μg subcutaneously, on the first day, two times 100 μg on the second day and three times 100 μg from the third day onwards. When possible, the long-acting repeatable (LAR) formulation was prescribed in a dosage of 20 mg per 4 weeks intramuscularly, which became available during the studies. The dose of patient 3, a child, was adjusted for their age to 10 mg per month (im). Immune suppressive treatment was adjusted as based on inflammatory activity. Visual acuity was measured after 2, 4, and 12 weeks of treatment. Fluorescein angiography was repeated after three months of treatment.

[3] = after eight weeks of 100 μg subcutaneously three times daily, before treatment 20/100 in each eye
[4] = four weeks after second stop of treatment
[5] = three months after resuming 100 μg subcutaneously once daily
[6] = within two weeks after first stop of injections
[7] = after three months of treatment
[8] = three months therapy, 10 patients

Question: For `CC(=O)Nc1nnc(S(N)(=O)=O)s1` [acetazolamide], which “effect on the edema or visual acuity” value [1] is on record?
Answer: without beneficial effect

Question: For `C[C@H]1C[C@H]2[C@@H]3CCC4=CC(=O)C=C[C@]4(C)[C@@]3(F)[C@@H](O)C[C@]2(C)[C@@]1(O)C(=O)CO` [betamehtasone, betamethasone], which “effect on the edema or visual acuity” value [1] is on record?
Answer: without beneficial effect

Question: How did the “effect on the edema or visual acuity” value [1] turn out when `O=C(O)Cc1ccccc1Nc1c(Cl)cccc1Cl` [diclofenac] was run?
Answer: without beneficial effect

Question: With `CCOC(=O)[C@H](CCc1ccccc1)N[C@@H](C)C(=O)N1CCC[C@H]1C(=O)O` [enalapril] as the compound, how does the “effect on the edema or visual acuity” value [1] read?
Answer: without beneficial effect

Question: Which results are given for `C[C@@H](O)[C@@H]1NC(=O)[C@H](CCCCN)NC(=O)[C@@H](Cc2c[nH]c3ccccc23)NC(=O)[C@H](Cc2ccccc2)NC(=O)[C@@H](NC(=O)[C@H](N)Cc2ccccc2)CSSC[C@@H](C(=O)N[C@H](CO)[C@@H](C)O)NC1=O` [octreotide]?
Answer: ophthalmoscopic finding, cystoid lesions ([1]; after eight weeks of 100 μg subcutaneously three times daily): the cysts had dried; visual acuity in the left eye (Snellen chart) [1, 3]: 20/50; visual acuity in the right eye (Snellen chart) [1, 3]: 20/40; visual change noted by the patient ([1]; after six weeks of 100 μg subcutaneously three times daily): visual improvement; visual acuity in each eye ([1]; four weeks after second resumption of therapy): 20/40; visual acuity in the left eye after stopping treatment [1, 4]: 20/50; visual acuity in the right eye after stopping treatment [1, 4]: 20/70; fluorescein angiography finding [1, 5]: some foveal fluorascein leakage; visual acuity in each eye [1, 5]: 20/40; side effects from the treatment ([1]; whole course of treatment): no side effects; ophthalmoscopic finding after stopping treatment [1, 6]: some fluid was observed; visual acuity in each eye after stopping treatment [1, 6]: 10/50; fluorescein angiographic macular edema clearly diminished [2, 7]: 3 eyes; fluorescein angiographic macular edema diminished but still visible [2, 7]: 9 eyes; fluorescein angiographic macular edema unaltered [2, 7]: 3 eyes; ocular hypertension ([2]; at week 4, 10 patients): one; diarrhoea (only side effect observed) ([2]; during the first days of treatment, 10 patients): 4 patients; patients in whom visual acuity or inflammation activity deteriorated [2, 8]: none; patients with decreased inflammation, leading to tapered immunosuppressive therapy [2, 8]: Four; CME dissolved by stereoscopic examination ([2]; three months therapy, 10 patients, six bilateral and four unilateral CME): 5 eyes; CME diminished by stereoscopic examination ([2]; three months therapy, further eyes beside those dissolved): 11 eyes
